Patent US10934253B2, “Therapeutic compounds and methods” (UNIVERSITY OF TASMANIA, priority 2017, dated 2021)

Assays:
Type in all cases: cell-based
[1] = system: HepG2 cells; experiment: Cell viability in the presence of a mitochondrial inhibitor (rotenone 10 μM); conditions: Homo sapiens, read-out: CELL VIABILITY [%]
Method: (§1) Cytoprotection of HepG2 cells by naphthoquinones was quantified in the presence of the mitochondrial toxin, rotenone. Briefly, HepG2 cells were seeded in 96-well plates at 5000 cells/well in DMEM with 0.3 g/l glucose, 10% FBS and Penicillin-Streptomycin-Glutamine. After overnight incubation under standard conditions, cells were treated with the test compounds (10 μM) for 2 days before cells were challenged with 1 μM rotenone in the presence of 10 μM test compounds in Hank's balanced salt solution (HBSS) for 6 hours. This was followed by post-incubation for an additional 18 hours with only 10 μM test compounds in HBSS. For measurement of cell viability, cells were washed with 100 μL PBS twice and then lysed using 40 μL lysis solution (4 mM EDTA, 0.2% Triton X-100) for 5 min at room temperature (RT) on an orbital shaker at 200 rpm. Then 10 μL of the lysate was mixed with 90 μL of enzyme-substrate mixture (as described above) in a white 96 well plate and luminescence was measured immediately using a plate-reader (Fluoroscan Ascent, Thermo Scientific). The data is expressed as % viability compared to the untreated (no-rotenone) control.
The cytoprotective effects of representative compounds of Formula (I) were further examined in vitro in response to rotenone toxicity at (10 μM). […] Cells were treated with the representative compounds of Formula (I) compounds (10 μM) for 2 days before cells were challenged with 10 μM rotenone.
Vitamin K, Menadione and Idebenone were used as comparative controls.

[2] = system: HepG2 cells; experiment: Acute ATP rescue assay (impaired mitochondrial function, rotenone); conditions: Homo sapiens, 1 h; HepG2; 1 μM quinones with rotenone 10 μM, 60 minutes, glucose-free DMEM; % ATP compared to untreated (no-rotenone) control
Method: HepG2 cells were seeded at a density of 5000 cells per well in a 96-well plate and incubated for 24 hours in DMEM with 0.3 g/l glucose, 10% FBS and Penicillin-Streptomycin-Glutamine. Cells were treated with 1 μM quinones in presence or absence of rotenone (10 μM), for 60 minutes in glucose-free DMEM ATP levels were quantified using luminescence from the ATP-dependent enzymatic oxidation of luciferin by luciferase. Cells were lysed in a volume of 40 μl (4 mM EDTA, 0.2% Triton X-100) for five minutes at room temperature (RT) on an orbital shaker at 200 rpm. […] Luminescence was quantified immediately using a multimode plate reader (Fluoroscan Ascent, Thermo Scientific). ATP levels were standardized to protein levels using a commercial BCA assay (Protein DC; BioRad) and changes were calculated as percentage relative to levels of DMSO-treated control cells. Data is expressed as % ATP compared to the untreated (no-rotenone) control.
Vitamin K, menadione and idebenone were used as comparative controls. DMSO was used as a control.

[3] = system: HepG2 cells; experiment: Rescue of cell viability in the presence of a mitochondrial inhibitor (rotenone 1 μM); conditions: Homo sapiens, HepG2
Method: as §1
The extent of protection of cellular viability against a rotenone challenge of representative compounds of Formula (I) is shown below in Table 5. Vitamin K, Menadione and Idebenone were used as comparative controls. DMSO was used as a control.

[4] = system: HepG2 cells; experiment: Extracellular lactate levels, enzyme-linked colorimetric assay; conditions: HepG2 culture medium; for Extracellular lactate [% control]: 25 mM glucose, supernatant after 48 h, standardized to protein
Method: Lactate concentrations in culture medium were determined by an enzyme-linked colorimetric assay. Briefly, 150,000 HepG2 cells were seeded in normal growth media (DMEM, 10% FCS, Pen/Strep) in each well of a 6-well plate (Life Science, USA) and incubated for 24 h. The media was replaced with growth media containing (25 mM glucose,) with and without test compounds. Three untreated wells containing only cells were considered the experimental baseline control and all compounds were tested in three different wells simultaneously. Supernatants were collected after 48 h and transferred into 96-well format. After the addition of 90 μl of reaction buffer (10 mM KH2PO4 pH 7.8, 1 mg/ml BSA, 0.5 mM PMS, 2 mM EDTA, 0.6 mM DCPIP, 0.8 mM NAD+, 5 U/ml glutamate-pyruvate-transaminase, 1.5 mM glutamate, 12.5 U/ml lactate dehydrogenase) the plate was incubated at 30° C. inside a multimode plate reader (Multiscan Go, Thermo Scientific) and absorbance was measured at 600 nm over a period of 100 minutes. A standard curve was generated using media spiked with known lactate concentrations. Finally, protein levels were quantified and the lactate concentration of each well was standardized to its protein content and was then expressed as % of control.
The extent of lactate reduction in the cell culture media by the test compounds of the subject invention and the Comparative Compounds vitamin K, menadione and idebenone is shown below in Table 6.

SMILES | viability at 10 µM ([1]; HepG2, 48 h) [%] | activity at 1 µM [2] [%] | viability at 10 µM [3] [%] | other results
COC(=O)C(Cc1ccccc1)NC(=O)CCCC1=C(C)C(=O)c2ccccc2C1=O (stereo in doubt) [UTA #35, (R)-methyl-2(4-(3-methyl-1,4-naphthoquinone-2-yl)butamido)-3-phenylpropanoate] | 76.2 | – | – | –
COC1=C(OC)C(=O)C(CCCCCCCCCCO)=C(C)C1=O [Idebenone, idebenone, reference compound] | – | 81 | – | viability at 10 µM ([3]; 10 μM test compound 2 days, 1 μM rotenone challenge 6 hours, 18 hours post-incubation, % of untreated (no-rotenone) control, read-out: Viability [%]): 66.2%; viability at 10 µM ([1]; 48 h, HepG2, compounds 10 uM for 2 days, then 10 μM rotenone challenge): 66.2%; Extracellular lactate [% control] [4]: 111.9 % control; Effect on lactate production (in words) ([4]; comment on the lactate table): increase lactate concentrations
CCCCC1=C(C)C(=O)c2ccccc2C1=O [UTA #19] | – | – | – | Extracellular lactate [% control] [4]: 65.3 % control
COc1ccc(CC2=C(C)C(=O)c3ccccc3C2=O)cc1OC [UTA #20] | – | – | – | Extracellular lactate [% control] [4]: 78.6 % control
CCCCCCCC1=C(C)C(=O)c2ccccc2C1=O [UTA #21] | – | – | – | Extracellular lactate [% control] [4]: 75.6 % control
CC1=C(CCC2CCCC2)C(=O)c2ccccc2C1=O [UTA #22] | – | – | – | Extracellular lactate [% control] [4]: 73 % control
CC1=C(CCC(C)O)C(=O)c2ccccc2C1=O (stereo not shown) [UTA #24] | 72.8 | – | – | –
CC1=C(CCCC(=O)N2CCC[C@H]2C(=O)OC(C)(C)C)C(=O)c2ccccc2C1=O [UTA #42, (S)-tert-butyl-1-(4-(3-methyl-1,4-naphthoquinone-2-yl)butanoyl)pyrrolidine-2-carboxylate] | 64.7 | – | – | –
CC1=C(CCCC(=O)N2CCC[C@H]2C(=O)O)C(=O)c2ccccc2C1=O [UTA #43, (S)-1-(4-(3-methyl-1,4-naphthoquinone-2-yl)butanoyl)pyrrolidine-2-carboxylic Acid] | 92.7 | – | 92.7 | –
CC1=C(CCCC(=O)NCC(=O)OC(C)(C)C)C(=O)c2ccccc2C1=O [UTA #47] | 74.4 | – | – | –
CC1=C(CCCC(=O)N[C@@H](CC(C)C)C(=O)O)C(=O)c2ccccc2C1=O [UTA #54] | 98.7 | – | 98.7 | Extracellular lactate [% control] [4]: 79.1 % control
CC1=C(CCCC(=O)N[C@@H](Cc2ccc(O)cc2)C(=O)OC(C)(C)C)C(=O)c2ccccc2C1=O [UTA #55] | 78.6 | 94.8 | – | –
CC1=C(CCCC(=O)N2CCC[C@H]2CO)C(=O)c2ccccc2C1=O [UTA #61, (S)-2-(4-(2-(hydroxymethyl)pyrrolidin-1-yl)-4-oxobutyl)-3-methyl-1,4-naphthoquinone] | 101 | – | 101 | –
CC1=C(CCCC(=O)N[C@H](CO)Cc2ccccc2)C(=O)c2ccccc2C1=O [UTA #62, (S)—N-(1-hydroxy-3-phenylpropan-2-yl)-4-(3-methyl-1,4-naphthyoquinone-2-yl)butanamide] | 93.1 | 91.2 | 93.1 | –
CC1=C(CCC(=O)N[C@@H](Cc2ccccc2)C(=O)OC(C)(C)C)C(=O)c2ccccc2C1=O [UTA #65] | 60.1 | 91.1 | – | –
CC1=C(CCC(=O)N[C@@H](Cc2ccccc2)C(=O)O)C(=O)c2ccccc2C1=O [UTA #66] | 66.9 | – | – | Extracellular lactate [% control] [4]: 66 % control
CC1=C(CCCCC(=O)O)C(=O)c2ccccc2C1=O [UTA #67, 25-(3-methyl-1,4-naphthoquinone-2-yl)pentanoic acid] | 74.9 | 97.1 | – | Extracellular lactate [% control] [4]: 67.6 % control
CC1=C(CCCCCC(=O)O)C(=O)c2ccccc2C1=O [UTA #70] | 66.8 | 91.8 | – | Extracellular lactate [% control] [4]: 73.3 % control
CC1=C(CCCCC(=O)N[C@@H](Cc2ccccc2)C(=O)OC(C)(C)C)C(=O)c2ccccc2C1=O [UTA #71] | 70.5 | 92.2 | – | –

SMILES | viability at 10 µM ([1]; HepG2, 48 h) [%] | activity at 1 µM [2] [%] | viability at 10 µM [3] [%] | other results
CC1=C(CCCCC(=O)N[C@@H](Cc2ccccc2)C(=O)O)C(=O)c2ccccc2C1=O [UTA #72] | 90.7 | 84.8 | 90.7 | –
CC1=C(CCCC(=O)NCCc2c[nH]c3ccccc23)C(=O)c2ccccc2C1=O [UTA #73, N-(2-(1H-indol-3-yl)ethyl)-4-(3-methyl-1,4-naphthoquinone-2-yl)butanamide] | 86.2 | 96.1 | 86.2 | –
CC1=C(CCCC(=O)NCCc2ccc(O)cc2)C(=O)c2ccccc2C1=O [UTA #74, N-(4-hydroxyphenethyl)-4-(3-methyl-1,4-naphthoquinone-2-yl)butanamide] | 91.7 | 101 | 91.7 | –
CC1=C(CCCCCC(=O)N[C@@H](Cc2ccccc2)C(=O)OC(C)(C)C)C(=O)c2ccccc2C1=O [UTA #75] | 61.4 | 95.4 | – | –
CC1=C(CCCCCC(=O)N[C@@H](Cc2ccccc2)C(=O)O)C(=O)c2ccccc2C1=O [UTA #76] | 68.1 | – | – | –
CC1=C(CCCC(=O)N[C@@H](CO)Cc2ccccc2)C(=O)c2ccccc2C1=O [UTA #78] | 80 | – | – | –
CC1=C(CCCC(=O)N[C@@H](CO)c2ccccc2)C(=O)c2ccccc2C1=O [UTA #80] | 87.6 | – | 87.6 | –
CC1=C(CCCC(=O)N[C@H](CO)c2ccccc2)C(=O)c2ccccc2C1=O [UTA #81] | 83.8 | – | 83.8 | –
CC1=C(CCCCCC(=O)N[C@H](CO)Cc2ccccc2)C(=O)c2ccccc2C1=O [UTA #84] | 74.4 | 90.4 | – | –
CC1=C(CCCCC(=O)NCCc2ccc(O)cc2)C(=O)c2ccccc2C1=O [UTA #88] | 91.8 | – | 91.8 | –
CC1=C(CCCCCC(=O)NCCc2ccc(O)cc2)C(=O)c2ccccc2C1=O [UTA #89] | 85.2 | – | 85.2 | –
CCCCNC(=O)CCCC1=C(C)C(=O)c2ccccc2C1=O [UTA #91] | 82 | – | 82 | –
COC(=O)[C@@H]1C[C@@H](O)CN1C(=O)CCCC1=C(C)C(=O)c2ccccc2C1=O [UTA #93] | 74.4 | – | – | –
CC1=C(CCCC(=O)N[C@H](Cc2ccccc2)C(=O)O)C(=O)c2ccccc2C1=O [UTA #94] | 71.7 | – | – | –
COC(=O)[C@@H](NC(=O)CCCC1=C(C)C(=O)c2ccccc2C1=O)c1ccccc1 [UTA #95] | 86.1 | – | 86.1 | –
COC(=O)[C@H](NC(=O)CCCC1=C(C)C(=O)c2ccccc2C1=O)c1ccccc1 [UTA #97] | 84.8 | – | 84.8 | –
O=C(CCCC1=CC(=O)c2ccccc2C1=O)NCCc1ccc(O)cc1 [UTA #113] | 73.4 | – | – | –
O=C(CCCC1=CC(=O)c2ccccc2C1=O)N[C@H](CO)Cc1ccccc1 [UTA #115] | 80.8 | – | 80.8 | –
O=C(CCCC1=CC(=O)c2ccccc2C1=O)N[C@@H](Cc1ccccc1)C(=O)O [UTA #117] | 80.3 | – | 80.3 | –
